Test results: PMC12320299 (Chemical Science, 2025)

System: SW480 cancer cells
Assay: Proteome profiling of compound-treated SW480 cancer cells (24 h, approx. IC50, CYT and NE fractions)
Assay type: cell-based, human
Procedure: To gain insight into potential modes of action and derive structure–activity relationships on a molecular level, proteomic profiling experiments were carried out based on label-free quantification (LFQ) by nano-liquid chromatography tandem mass spectrometry (nLC-MS/MS). […] Six replicates were used per condition. The perturbations were evaluated at subcellular resolution by fractionating cells into cytoplasmic (CYT) and nuclear (NE) protein fractions. Those have been separately proteolytically digested and analysed (Fig. 3A). The perturbations with the 3-Et-NQ and 3-Morph-NQ complexes were performed against their respective solvent-treated controls (CON), yielding a total of 72 samples. […] Statistical significance of individual protein regulations was calculated by multiple testing-corrected P-values based on 5% false discovery rate (FDR = 0.05 and S0 = 0.1).
The position of each group represents the summed fold-changes of the individual proteins in the group according to the subcellular space, i.e., CYT and NE fractions, while the size represents the number of proteins in each group. […]
Proteome profiling of compound-treated SW480 cancer cells […]
cells per well and left to adhere in complete cell culture medium. After 24 h, the medium was exchanged with fresh complete medium (DMSO mock control) or fresh medium containing […]
solution in DMSO, respectively) and incubated for another 24 h. Each condition was carried out in hexuplicates. The cells were processed according to a nucleocytoplasmic fractionation protocol as previously described.3 All steps were performed on ice. The medium was removed, and the cells were washed twice with 1×PBS (phosphate buffered saline, 3 mL). Then, PBS was thoroughly removed. Isotonic lysis buffer (10 mM HEPES, 10 mM NaCl, 3.5 mM MgCl2, 1 mM EGTA, 0.25 M Sucrose, 0.5% Triton X-100) containing protease inhibitors (1% PMSF, Sigma, and 1% protease and phosphatase inhibitor cocktail, Roche) was added to the flasks, the cells were scraped off and transferred into labelled 15 mL Falcon tubes. The cellular membrane was ruptured using shear stress by pressing the cell suspension through a syringe 9–12 times. Membrane rupture with intact nuclei was monitored under a microscope. After centrifugation (960 g, 5 min), the supernatant containing the cytoplasmic (CYT) proteins was transferred into new tubes containing ice-cold ethanol (1 : 5, HPLC grade) and precipitated […]
overnight at –20 °C. The pellet containing the nuclei was incubated with a hypertonic solution (10 mM Tris-HCl, 1 mM EDTA and 0.5 M NaCl) and subsequently diluted 1:10 with NP-40 buffer (10 mm Tris-HCl, 1 mm EDTA and 0.5% Triton X-100) containing protease inhibitors (1% PMSF, Sigma, and 1% protease and phosphatase inhibitor cocktail, Roche). After centrifugation (960 g, 5 min), the soluble nuclear (NE) proteins were also transferred into new tubes containing ice-cold ethanol (1 : 5, HPLC grade) and precipitated overnight at –20 °C.
The precipitated proteins were finally pelleted by centrifugation (5000 g, 30 min, 4 °C), the solution was decanted and the pellet dried under vacuum.

[1] = cytoplasmic fraction, FDR = 0.05, S0 = 0.1
[2] = nuclear fraction, FDR = 0.05, S0 = 0.1

CCC1=C2[O][Os][O]C2(n2cccn2)c2ccccc2C1=O.Cc1ccc(C(C)C)cc1 (stereo not shown) [Compound 2a]
N° significantly regulated proteins, Total (CYT and NE): 968 | GO BP Cellular response to heat, summed fold-changes (CYT fraction): 12.51 | GO BP Cellular response to oxidative stress, summed fold-changes (CYT fraction): 2.82 | GO BP DNA duplex unwinding, summed fold-changes (CYT fraction): -6.24 | GO BP DNA replication, summed fold-changes (CYT fraction): -1.08 | GO BP Double-strand break repair, summed fold-changes (CYT fraction): -1.23 | GO BP Macroautophagy, summed fold-changes (CYT fraction): 10.51 | GO BP Negative regulation of apoptotic process, summed fold-changes (CYT fraction): 3.78 | GO BP Negative regulation of translation, summed fold-changes (CYT fraction): -16.92 | GO BP Proteasome-mediated ubiquitin-dependent protein catabolic process, summed fold-changes (CYT fraction): 2.56 | GO BP Protein K48-linked ubiquitination, summed fold-changes (CYT fraction): -5.49 | GO BP Protein folding, summed fold-changes (CYT fraction): 12.25 | GO BP Protein transport, summed fold-changes (CYT fraction): -1.68 | GO BP Regulation of mRNA stability, summed fold-changes (CYT fraction): -7.54 | GO BP Response to oxidative stress, summed fold-changes (CYT fraction): 3.27 | GO BP Ribosomal small subunit biogenesis, summed fold-changes (CYT fraction): -13.81 | GO BP Stress granule assembly, summed fold-changes (CYT fraction): -9.95 | GO BP Translation, summed fold-changes (CYT fraction): -61.19 | GO BP mRNA processing, summed fold-changes (CYT fraction): -0.15 | GO BP rRNA processing, summed fold-changes (CYT fraction): -20.40 | GO CC Azurophil granule lumen, summed fold-changes (CYT fraction): 3.77 | GO CC Cell surface, summed fold-changes (CYT fraction): 0.48 | GO CC Centrosome, summed fold-changes (CYT fraction): -15.78 | GO CC Chromosome, telomeric region, summed fold-changes (CYT fraction): -11.84 | GO CC Cytoplasmic stress granule, summed fold-changes (CYT fraction): -16.41 | GO CC Cytosol, summed fold-changes (CYT fraction): -84.80 | GO CC Endoplasmic reticulum, summed fold-changes (CYT fraction): -28.57 | GO CC Extracellular exosome, summed fold-changes (CYT fraction): -26.34 | GO CC Ficolin-1-rich granule lumen, summed fold-changes (CYT fraction): 8.74 | GO CC Focal adhesion, summed fold-changes (CYT fraction): -17.07 | GO CC Intracellular membrane-bounded organelle, summed fold-changes (CYT fraction): -3.80 | GO CC Membrane, summed fold-changes (CYT fraction): -160.70 | GO CC Mitochondrion, summed fold-changes (CYT fraction): -60.30 | GO CC Nucleoplasm, summed fold-changes (CYT fraction): -4.45 | GO CC Nucleus, summed fold-changes (CYT fraction): -0.98 | GO CC Perinuclear region of cytoplasm, summed fold-changes (CYT fraction): -5.25 | GO CC Proteasome complex, summed fold-changes (CYT fraction): 3.84 | GO CC Protein-containing complex, summed fold-changes (CYT fraction): -12.02 | GO CC Ribonucleoprotein complex, summed fold-changes (CYT fraction): -24.78 | GO CC Spliceosomal complex, summed fold-changes (CYT fraction): -1.04 | KEGG pathway Apoptosis, summed fold-changes (CYT fraction): 5.03 | KEGG pathway Cellular senescence, summed fold-changes (CYT fraction): -0.24 | KEGG pathway Ferroptosis, summed fold-changes (CYT fraction): 5.49 | KEGG pathway Proteasome, summed fold-changes (CYT fraction): 4.95 | KEGG pathway Protein processing in endoplasmic reticulum, summed fold-changes (CYT fraction): 25.89 | KEGG pathway RNA degradation, summed fold-changes (CYT fraction): -8.81 | KEGG pathway Ribosome, summed fold-changes (CYT fraction): -52.73 | GO BP Cellular response to heat, summed fold-changes (NE fraction): 8.73 | GO BP Cellular response to oxidative stress, summed fold-changes (NE fraction): -0.12 | GO BP DNA duplex unwinding, summed fold-changes (NE fraction): -0.60 | GO BP DNA replication, summed fold-changes (NE fraction): -7.21 | GO BP Double-strand break repair, summed fold-changes (NE fraction): -0.87 | GO BP Macroautophagy, summed fold-changes (NE fraction): 4.83 | GO BP Negative regulation of apoptotic process, summed fold-changes (NE fraction): 2.62 | GO BP Negative regulation of translation, summed fold-changes (NE fraction): 1.88 | GO BP Proteasome-mediated ubiquitin-dependent protein catabolic process, summed fold-changes (NE fraction): 45.28 | GO BP Protein K48-linked ubiquitination, summed fold-changes (NE fraction): -1.15 | GO BP Protein folding, summed fold-changes (NE fraction): 2.10 | GO BP Protein transport, summed fold-changes (NE fraction): 1.57 | GO BP Regulation of mRNA stability, summed fold-changes (NE fraction): -0.24 | GO BP Response to oxidative stress, summed fold-changes (NE fraction): -0.72 | GO BP Ribosomal small subunit biogenesis, summed fold-changes (NE fraction): -1.30 | GO BP Stress granule assembly, summed fold-changes (NE fraction): 3.01 | GO BP Translation, summed fold-changes (NE fraction): -4.88 | GO BP mRNA processing, summed fold-changes (NE fraction): 1.71 | GO BP rRNA processing, summed fold-changes (NE fraction): -2.04 | GO CC Azurophil granule lumen, summed fold-changes (NE fraction): -1.14 | GO CC Cell surface, summed fold-changes (NE fraction): 0.76 | GO CC Centrosome, summed fold-changes (NE fraction): 0.70 | GO CC Chromosome, telomeric region, summed fold-changes (NE fraction): -12.89 | GO CC Cytoplasmic stress granule, summed fold-changes (NE fraction): 4.82 | GO CC Cytosol, summed fold-changes (NE fraction): 8.58 | GO CC Endoplasmic reticulum, summed fold-changes (NE fraction): 8.32 | GO CC Extracellular exosome, summed fold-changes (NE fraction): 5.34 | GO CC Ficolin-1-rich granule lumen, summed fold-changes (NE fraction): 23.99 | GO CC Focal adhesion, summed fold-changes (NE fraction): 9.01 | GO CC Intracellular membrane-bounded organelle, summed fold-changes (NE fraction): 8.65 | GO CC Membrane, summed fold-changes (NE fraction): -2.15 | GO CC Mitochondrion, summed fold-changes (NE fraction): -7.86 | GO CC Nucleoplasm, summed fold-changes (NE fraction): 29.04 | GO CC Nucleus, summed fold-changes (NE fraction): 29.16 | GO CC Perinuclear region of cytoplasm, summed fold-changes (NE fraction): 8.90 | GO CC Proteasome complex, summed fold-changes (NE fraction): 37.70 | GO CC Protein-containing complex, summed fold-changes (NE fraction): -3.65 | GO CC Ribonucleoprotein complex, summed fold-changes (NE fraction): 3.30 | GO CC Spliceosomal complex, summed fold-changes (NE fraction): -3.40 | KEGG pathway Apoptosis, summed fold-changes (NE fraction): -0.73 | KEGG pathway Cellular senescence, summed fold-changes (NE fraction): -3.09 | KEGG pathway Ferroptosis, summed fold-changes (NE fraction): 1.80 | KEGG pathway Proteasome, summed fold-changes (NE fraction): 35.64 | KEGG pathway Protein processing in endoplasmic reticulum, summed fold-changes (NE fraction): 19.56 | KEGG pathway RNA degradation, summed fold-changes (NE fraction): -5.97 | KEGG pathway Ribosome, summed fold-changes (NE fraction): -4.75 | N° proteins down-regulated, CYT [1]: 429 | N° proteins upregulated, CYT [1]: 202 | N° proteins down-regulated, NE [2]: 170 | N° proteins upregulated, NE [2]: 167
